These results are taken from US11666561B2, “Compounds for use in regulating follicle maturation” (AARHUS UNIVERSITET, priority 2017, dated 2023).

For this test, the system named is primordial-to-primary follicle transition. The test is described as follows: In vitro organ culture of mouse ovaries with compound, H&E histology and counting of primordial, primary and secondary follicles. Conditions: for effect on primordial-to-primary follicle transition / primordial follicle activation: in vitro cultured mouse ovaries, concentration not given. The procedure:
Ovaries obtained from mice were washed twice with culture medium. Antagonists or agonists to be tested were dissolved in suitable solvents and added to the medium. As a control medium comprising solvent without the antagonist or agonist was used. One of the ovaries was cultured in a control medium and another was cultured with the antagonist or agonist. The tested antagonists or agonists and their concentrations are outlined in table 2.
Ovaries were incubated with antagonist at 37° C. and 5% CO2 for 24 and 96 hours, respectively (see table 3).
Cultures ovaries were fixed, embedded in paraffin and sliced microscopy. The sectioned ovaries were stained with hematoxylin and eosin (H&E) to visualize the morphology of the ovary by microscopy.
The number of primordial, primary and secondary follicles was determined, and it was determined whether the antagonist or agonist was capable of regulating folliculogenesis.
C57BL/6j×CBA F1 hybrid mice (Janvier Labs, France) were housed and bred in the animal facilities at Department of Biomedicine, Aarhus University. Animals were housed in a 12:12 h controlled light-dark environment and were provided with food and water ad libitum. 7-day-old female pups were used for the study.
Pups were sacrificed and ovaries were excised. Using a stereomicroscope MZ75 (Leica Microsystems, Germany), excess tissue was removed. During the dissection, ovaries were kept at 37° C. in culture medium: aMEM (Thermo Fisher) supplemented with 10% FBS (Thermo Fisher), 100 mIU/mL of FSH (Sigma-Aldrich), 100 IU/mL penicillin (Thermo Fisher), 100 μg/mL streptomycin (Thermo Fisher) and 1% Insulin-Transferrin-Selenium (Thermo Fisher). Isolated ovaries were transferred into well inserts (PET membrane ThinCert, 0.4 μm-pore size; Greiner bio-one) in 24-well plates (Tissue culture treated, cell culture plates; Costar). 200-300 μL of culture medium was added to the well below the insert and up to two ovaries were placed on the membrane of each insert. The culture medium was supplemented with different concentrations of the tested compounds; bpV(HOpic) (Sigma-Aldrich), Temsirolimus (Sigma-Aldrich), Ketotifen (Sigma-Aldrich), 3PO (Sigma-Aldrich), Dorsomorphin (Sigma-Aldrich), AICAR (Sigma-Aldrich), NCG (Sigma-Aldrich), and Dyphylline (Cayman Chemical). Up to six wells in the 24-well plate were used for inserts. Sterile dH2O was added to the rest of the wells to ensure humidity and reduce evaporation. The ovaries were cultured at 37° C., 5% CO2 for four days. 150 μL of medium was replaced every other day with fresh culture medium.
Ovaries kept in organ culture for four days were fixed for 24 hours in 4% paraformaldehyde solution at 4° C. After fixation, ovaries were dehydrated in ethanol series using 70%, 96% and 99.9% ethanol. Xylene was used as clearing agent before the ovaries were infiltrated in paraffin wax. 5 μm-sections of samples in paraffin were cut using a microtome (Cut 6062, SLEE medical, Germany). Paraffin sections were mounted on glass slides, paraffin was melted at 60° C., and the samples were stained with hematoxylin and eosin (using standard protocols).
The samples were deparaffinized by incubating in xylene for 2×15 min. and subsequently rehydrated in series of ethanol; 3×2 min. in 99.9% ethanol, 2 min. in 96% ethanol, and 2 min. in 70% ethanol. The samples were then rinsed in dH2O, stained in hematoxylin for 40 sec., rinsed in dH2O for 5 min., and stained in eosin for 46 sec. The samples were dehydrated in ethanol: 2×2 min. in 96% ethanol, 2×2 min in 99.9% ethanol, and finally cleared up in xylene for at least 30 min before mounting the samples using Eukitt mounting medium (Sigma-Aldrich) and cover glass.
The number of follicles at each developmental stage was counted using an inverted research microscope (DM14000B, Leica Microsystems, Germany). The follicles of every 3rd to 4th section of each ovary were counted and the distribution of follicles in the different stages in percentage was determined.

Take `CNC(=O)c1cc(Oc2ccc(NC(=O)Nc3ccc(Cl)c(C(F)(F)F)c3)cc2)ccn1` [BIIB022, 4-[4-[[4-chloro-3-(trifluoromethyl)phenyl]carbamoylamino]phenoxy]-N-methyl-pyridine-2-carboxamide]: the Effect entry reads like this: (Table 1, marked (ongoing)) “promotes”; (Table 2, marked (ongoing)) “promotes”.
Turning to `CN(c1ncccc1CNc1nc(Nc2ccc3c(c2)CC(=O)N3)ncc1C(F)(F)F)S(C)(=O)=O` [PF-562271, N-methyl-N-[3-[[[2-[(2-oxo-1,3-dihydroindol-5-yl)amino]-5-(trifluoromethyl)pyrimidin-4-yl]amino]methyl]pyridin-2-yl]methanesulfonamide], the Effect result reads like this: (Table 1, marked (ongoing)) “promotes”; (Table 2, marked (ongoing)) “promotes”.
Turning to “Cixutumumab: fully human IgG1 monoclonal antibody directed against the human insulin-like growth factor-1 receptor”, the Effect entry (Table 1, marked (ongoing)) is given as “promotes” and the Effect entry (Table 2, marked (ongoing)) is listed as “promotes”.
Turning to `Cc1cn(-c2cc(NC(=O)c3ccc(C)c(Nc4nccc(-c5cccnc5)n4)c3)cc(C(F)(F)F)c2)cn1` [Pirotinib, 4-methyl-N-[3-(4-methylimidazol-1-yl)-5-(trifluoromethyl)phenyl]-3-[(4-pyridin-3-ylpyrimidin-2-yl)amino]benzamide], the Effect result reads like this: (Table 1, marked (ongoing)) “promotes”; (Table 2, marked (ongoing)) “promotes”.
Turning to `CO[C@H]1C[C@@H]2CC[C@@H](C)[C@@](O)(O2)C(=O)C(=O)N2CCCC[C@H]2C(=O)O[C@H]([C@H](C)C[C@@H]2CC[C@@H](OC(=O)C(C)(CO)CO)[C@H](OC)C2)CC(=O)[C@H](C)/C=C(\C)[C@@H](O)[C@@H](OC)C(=O)[C@H](C)C[C@H](C)/C=C/C=C/C=C/1C` [Temsirolimus], the “effect on primordial-to-primary follicle transition / primordial follicle activation” value is on record as “decrease the rate of primordial-to-primary transition”.
As to `COc1ncc(-c2nc3c(n2C(C)C)[C@H](c2ccc(Cl)cc2)N(c2cc(Cl)cn(C)c2=O)C3=O)c(OC)n1` [HDM201, (6S)-5-(5-chloro-1,2-dihydro-1-methyl-2-oxo-3-pyridinyl)-6-(4-chlorophenyl)-2-(2,4-dimethoxy-5-pyrimidinyl)-5,6-dihydro-1-(1-methylethyl)-Pyrrolo[3,4-d]imidazol-4(1H)-one], the Effect result runs as follows: (Table 1, marked (ongoing)) “promotes”; (Table 2, marked (ongoing)) “promotes”.
As for `CC(=O)CCCCn1c(=O)c2c(ncn2C)n(C)c1=O` [Pentoxifylline, 3,7-dimethyl-1-(5-oxohexyl)purine-2,6-dione], the Effect entry was “promotes” (Table 1, marked (ongoing)) and “promotes” (Table 2, marked (ongoing)).
`CCOc1cc2ncc(C#N)c(Nc3ccc(F)c(Cl)c3)c2cc1NC(=O)/C=C/CN(C)C` [Pelitinib, (E)-N-[4-(3-chloro-4-fluoroanilino)-3-cyano-7-ethoxyquinolin-6-yl]-4-(dimethylamino)but-2-enamide]: the Effect entry reads like this: (Table 1, marked (ongoing)) “promotes”; (Table 2, marked (ongoing)) “promotes”.
With `COc1cc([C@@H]2c3cc4c(cc3[C@H](O)[C@H]3COC(=O)[C@@H]23)OCO4)cc(OC)c1OC` [Picropodophyllin, (5R,5aR,8aS,9R)-5-hydroxy-9-(3,4,5-trimethoxyphenyl)-5a,6,8a,9-tetrahydro-5H-[2]benzofuro[5,6-f][1,3]benzodioxol-8-one], the Effect entry (Table 1, marked (ongoing)) is given as “promotes” and the Effect result (Table 2, marked (ongoing)) is on record as “promotes”.
Take `Cc1c(NC(=O)OC[C@@H]2COCCN2)cn2ncnc(Nc3ccc4c(cnn4Cc4cccc(F)c4)c3)c12` [BMS-599626, [(3S)-morpholin-3-yl]methyl N-[4-[[1-[(3-fluorophenyl)methyl]indazol-5-yl]amino]-5-methylpyrrolo[2,1-f][1,2,4]triazin-6-yl]carbamate]: the Effect entry was “promotes” (Table 1, marked (ongoing)) and “promotes” (Table 2, marked (ongoing)).
For `Cn1c(=O)c2[nH]cnc2n(C)c1=O` [Theophylline, 1,3-dimethyl-7H-purine-2,6-dione], the Effect entry is “promotes” (Table 1, marked (ongoing)) and “promotes” (Table 2, marked (ongoing)).
On to `Cn1c(=O)c2c(ncn2CC(O)CO)n(C)c1=O` (stereo not drawn) [Dyphylline, 7-(2,3-dihydroxypropyl)-1,3-dimethylpurine-2,6-dione], for which the “effect on primordial-to-primary follicle transition / primordial follicle activation” value was “activation of primordial follicles”. For the setting “10 and 100 μM Dyphylline, 96 hours, number too small for statistics”, the “effect on follicle distribution” value is “has the potential to activate primordial follicle distribution”. For the same molecule, the Effect result (Table 1, effect with a figure cited) is recorded as “Promotes”. Moreover, for the setting “Table 2, effect with a figure cited”, the Effect entry is “Promotes”.
As to `CN(C)C/C=C/C(=O)Nc1cc2c(Nc3ccc(F)c(Cl)c3)ncnc2cc1O[C@H]1CCOC1` [Afatinib, (E)-N-[4-(3-chloro-4-fluoroanilino)-7-[(3S)-oxolan-3-yl]oxyquinazolin-6-yl]-4-(dimethylamino)but-2-enamide], the Effect result (Table 1, marked (ongoing)) was “promotes” and the Effect result (Table 2, marked (ongoing)) is “promotes”.
Take `C[C@H]1Cc2ccccc2N1C(=O)Cc1nc(N2CCOCC2)cc(=O)[nH]1` [SAR260301, (S)-2-(2-(2-Methylindolin-1-yl)-2-oxoethyl)-6-morpholinopyrimidin-4(3H)-one]: the Effect result reads like this: (Table 1, marked (ongoing)) “promotes”; (Table 2, marked (ongoing)) “promotes”.
For the molecule `Cc1nccc2[nH]c(=O)ccc12` [Medorinone, 5-methyl-1H-1,6-naphthyridin-2-one], the Effect result reads like this: (Table 1, marked (ongoing)) “promotes”; (Table 2, marked (ongoing)) “promotes”.
Take `COc1cc(C(=O)O)ccc1NC(=O)[C@@H]1N[C@@H](CC(C)(C)C)[C@](C#N)(c2ccc(Cl)cc2F)[C@H]1c1cccc(Cl)c1F` [Idasanutlin, 4-{[(3S,4R,5S)-3-(3-Chloro-2-fluorophenyl)-4-(4-chloro-2-fluorophenyl)-4-cyano-5-(2,2-dimethylpropyl)-D-prolyl]amino}-3-methoxybenzoic acid]: the Effect entry reads like this: (Table 1, marked (ongoing)) “promotes”; (Table 2, marked (ongoing)) “promotes”.
Regarding `Cn1c(=O)n(-c2ccc(C(C)(C)C#N)cc2)c2c3cc(-c4cnc5ccccc5c4)ccc3ncc21` [Dactolisib, -methyl-2-(4-(3-methyl-2-oxo-8-(quinolin-3-yl)-2,3-dihydro-1H-imidazo[4,5-c]quinolin-1-yl)phenyl)propanenitrile], the Effect entry is, setting by setting: (Table 1, marked (ongoing)) “promotes”; (Table 2, marked (ongoing)) “promotes”.
Take `COC(=O)C1=C(C)NC(C)=C([N+](=O)[O-])C1c1ccccc1C(F)(F)F` (stereo not drawn) [BAY 1217389, methyl 2,6-dimethyl-5-nitro-4-[2-(trifluoromethyl)phenyl]-1,4-dihydropyridine-3-carboxylate]: the Effect entry is “promotes” (Table 1, marked (ongoing)) and “promotes” (Table 2, marked (ongoing)).
On to `CCCCNC(=O)NS(=O)(=O)c1ccc(C)cc1` [Tolbutamide, 1-butyl-3-(4-methylphenyl)sulfonylurea], for which the Effect result by setting is: (Table 1, marked (ongoing)) “promotes”; (Table 2, marked (ongoing)) “promotes”.
Take `C=CCN(/C=C1/C(=O)O[C@H](COC)[C@@]2(C)C1=C(O)C(=O)C1=C2[C@H](OC(C)=O)C[C@]2(C)C(=O)CC[C@@H]12)CC=C` [PX-866]: the Effect entry (Table 1, marked (ongoing)) was “promotes” and the Effect entry (Table 2, marked (ongoing)) is “promotes”.
For `CCOc1cc(C(C)(C)C)ccc1C1=N[C@@](C)(c2ccc(Cl)cc2)[C@@](C)(c2ccc(Cl)cc2)N1C(=O)N1CCN(CCCS(C)(=O)=O)CC1` [RO5045337, [(4S,5R)-2-(4-tert-butyl-2-ethoxyphenyl)-4,5-bis(4-chlorophenyl)-4,5-dimethylimidazol-1-yl]-[4-(3-methylsulfonylpropyl)piperazin-1-yl]methanone], the Effect result runs as follows: (Table 1, marked (ongoing)) “promotes”; (Table 2, marked (ongoing)) “promotes”.
For `C=CC(=O)Nc1cc(Nc2nccc(-c3cn(C)c4ccccc34)n2)c(OC)cc1N(C)CCN(C)C` [Osimertinib, N-[2-[2-(dimethylamino)ethyl-methylamino]-4-methoxy-5-[[4-(1-methylindol-3-yl)pyrimidin-2-yl]amino]phenyl]prop-2-enamide], the Effect entry was “promotes” (Table 1, marked (ongoing)) and “promotes” (Table 2, marked (ongoing)).
